Tested on: embryonic stem cells
Experiment: Embryonic stem cells treated with NAD+ synthesis inhibitor FK866 and NAD precursors (NAD level, AP activity, apoptosis)
Assay type: cell-based, human
Procedure: Embryonic stem cells were treated with nicotinamide and related compounds, and after 6 days, protein was isolated from the cells. NAD cycling enzyme was added to and reacted with 20 μg of the protein per each group at room temperature for 5 minutes, and then a NADH developer was added and reacted therewith for 2-3 hours. The absorbance at 450 nm was measured using a microplate reader, and the amount of the […] was quantified.
AP staining was performed using a commercial AP kit (Sigma) according to the manufacturer's instruction. Images of AP-positive cells were recorded with HP Scanjet G4010. Also, bight field images were obtained with an Olympus microscope (IX51, Olympus, Japan).
In order to examine the effect of nicotinamide on a reduction in the apoptosis of human pluripotent stem cells, dual apoptosis assay (Biotium, Hayward, Calif.) was performed. Embryonic stem cells or cells reprogrammed were stained with NucView™488 Caspase-3 Substrate (green)/Annextin V (red) at room temperature for 30 minutes, followed by washing with PBS. At least 4 sections of each sample were imaged with an Olympus fluorescence microscope (IX51, Olympus), and the number of cells stained with green (Caspase-3) was counted to quantify the degree of apoptosis.

Compound	recovery from damage caused by FK866 (co-treatment with FK866, also in mTeSR1-CDM)	apoptosis (treated with FK866)	concentration of NAD in the cells (treated with FK866)	state of the embryonic stem cells (treated with FK866)
O=C(O)c1cccnc1 [nicotinic acid]	recovered	–	–	–
O=C(/C=C/c1cccnc1)NCCCCC1CCN(C(=O)c2ccccc2)CC1 [FK866]	–	induced	decreased	differentiated

Source: US20150072416A1, “METABOLITE FOR IMPROVING PRODUCTION, MAINTENANCE AND PROLIFERATION OF PLURIPOTENT STEM CELLS, COMPOSITION COMPRISING THE SAME, AND METHOD OF CULTURING PLURIPOTENT STEM CELL USING THE SAME” (KOREA RESEARCH INSTITUTE OF BIOSCIENCE AND BIOTENOLOGY, priority 2012, published 2015)
